The conditions of data set [1]: cited from earlier work.
Data set [2] relates to cell line K562. Description: SRB-assay of cell growth, cell line K 562. Particulars: for cell growth by SRB-assay, extinction at 540 nm / cell growth, % of control: K562, 10−6M of Taxol and cyclodextrin; for cell growth, % of control: control = 100%; for toxicity to the cells, in words: K562, tested concentration of Table 3 (10−6M, 0.001 mM). The format is cell-based, human. As for the experimental part:
(§1) As control solutions containing similar amounts of cyclodextrins and no Taxol, further the Taxol-Cremophor EL composition. Cremophor EL solution and the untreated cell cultures were examined.
(§2) The experiments were carried out and evaluated on both cell lines according to the examination methods of F. Skehan et al [New Colorimetric Assay of Anticancer Drug Screening, J. Natl. Canc. Inst. 82, 1107-1113 (1990) and A. Martin and M. Clynes (Comparison of 5 Microplate Colorimetric Assays for in Vitro Cytotoxicity Testing and Cell Proliferation Assays, Cytotechnology 11, 49-58 (1993)] in the Pathological and Experimental Cancer Research Institute No. 1 of the Semmelweis Medical University, Budapest.
(§3) The cells were exposed in a RPMI 1640 medium containing 10% of Foetal Calf Serum (FCS) medium on a microplate of 96 wells, by placing 5000 cells in 100 μl of medium.
(§4) The cell cultures were treated after 24 hours with a solution containing the test substances in 100 μl of a FCS-free RPMI medium, thus the final concentration of FCS became 5%. Every evaluation point is the averaged result of 8 parallels, the control was present in 8 parallels on each plate, thus the evaluation point was obtained by averaging 24 parallels. The eight test compositions were examined simultaneously, in one test on each cell line.
(§5) After 72 and 96 hours the cell growth was measured by SRB-assay (the determining method is SRB-painting of the total protein, the total protein is proportional to the cell growth, the extinction was read by a Microplate reader at a wave length of 540 nm).
Background: In SRB staining, fixed cells bind dye roughly in proportion to their protein.

In data set [3] the test system is cell line PC 3. Briefly: SRB-assay of cell growth, cell line PC 3. The class given is cell-based, human. To be noted: for cell growth by SRB-assay, extinction at 540 nm / cell growth, % of control: PC 3, 10^−6M of Taxol and cyclodextrin; for cell growth, % of control: control = 100%; for toxicity to the cells, in words: PC 3, tested concentration of Table 2 (10^−6M, 0.001 mM). As for the experimental part: as §1, §2, §3, §4, §5

Data set [4] can be described thus: Appearance and Taxol content of the compositions as prepared. The class given is physicochemical. Particulars: Taxol alone dissolved in ethanol or 1:1 ethanol and water.
Data set [5] in a line: physchem. To be noted: 22 °C, thermodynamic from solid.
For data set [6] the following is noted: cited from earlier work. This is another data set of the same source.
A short description of data set [7]: physchem. To be noted: 25 °C, water.
The nature of data set [8]: Solubility of Taxol with cyclodextrins and co-solvents, Higuchi-Connor method, HPLC. To be noted: for solubility: Taxol with RAMEB.
The test system of data set [9] is mouse. Particulars: mouse experiments, a 50% triacetine emulsion; cited from earlier work.

The text below walks through data of patent publication US6432928B1, “Complexes and their compositions” (Chinoin Gyogyszer es Vegyeszeti Termekek Gyara Rt., priority 1994, dated 2002).

As a reminder, the solubility is the dissolved amount per volume that the medium holds.

Each structure is given as a SMILES string. ≈ marks a conversion by molar mass, not a printed value. Where two headings read alike, the source gives them in different places.

As to `O=C(O)c1ccccc1Nc1cccc(C(F)(F)F)c1` [flufenamic acid], the ““aqueous” stability constant” value in [1] (aqueous, without methanol) was 1300 M⁻¹. The stability constant result in data set [1] (in the presence of 25% by volume methanol) was “about 400 M^31 1”.
Turning to `OC[C@H]1O[C@@H]2O[C@H]3[C@H](O)[C@@H](O)[C@@H](O[C@H]4[C@H](O)[C@@H](O)[C@@H](O[C@H]5[C@H](O)[C@@H](O)[C@@H](O[C@H]6[C@H](O)[C@@H](O)[C@@H](O[C@H]7[C@H](O)[C@@H](O)[C@@H](O[C@H]8[C@H](O)[C@@H](O)[C@@H](O[C@H]9[C@H](O)[C@@H](O)[C@@H](O[C@H]1[C@H](O)[C@H]2O)O[C@@H]9CO)O[C@@H]8CO)O[C@@H]7CO)O[C@@H]6CO)O[C@@H]5CO)O[C@@H]4CO)O[C@@H]3CO` [γ-CD, γ-cyclodextrin], the “cell growth by SRB-assay, extinction at 540 nm” value in data set [2] (incubation time 72 hours) is listed as 0.555 ± 0.200; in [2] (incubation time 96 hours) it was 0.531 ± 0,072; in data set [3] (incubation time 72 hours), 0.582 ± 0.126; in [3] (incubation time 96 hours), 0.937 ± 0,214. Further, the “cell growth, % of control” value in data set [2] (incubation time 72 hours) was “(50%)”; in [2] (incubation time 96 hours), “(34%)”; in data set [3] (incubation time 72 hours), “(77%)”; in [3] (incubation time 96 hours) it was “(71%)”. Further, the “toxicity to the cells, in words” value in data set [2] was “very toxic”; in data set [3], “slightly toxic”.
`CC(=O)O[C@H]1C(=O)[C@@]2(C)[C@H]([C@H](OC(=O)c3ccccc3)[C@]3(O)C[C@H](OC(=O)[C@H](O)[C@@H](NC(=O)c4ccccc4)c4ccccc4)C(C)=C1C3(C)C)[C@]1(OC(C)=O)CO[C@@H]1C[C@@H]2O` (relative stereo) [Taxol, [2aR-[2aα,4β,4αβ,6β,9α(αR*,βS*a11α,12α,12aα,12bα]]-β-(benzoylamino)-α-hydroxy-benzene-propanoic acid 6,12-b-bis(acetyloxy)-12-(benzoyloxy)-2a,3-4,4a,5,6,9,10,11,12,12a,12b-dodecahydro-4,11-dihydroxy-4a,8,13,13-tetra-methyl-5-oxo-7,11-methano-1H-cyklodeca[3,4]-benz-[1,2-b]-oxeth-9-yl-ester]]: the behaviour on dilution result in [4] was “immediately precipitates when diluted”. In addition, the solubility at 24 h in data set [5] (2:1 ethanol:water, aqueous with cosolvent or surfactant or cyclodextrin) is 4 mg/mL (≈ 4.68 mM); in data set [5] (DIMEB in 2:1 ethanol:water, aqueous with cosolvent or surfactant or cyclodextrin), 4 mg/mL (≈ 4.68 mM); in [5] (DIMEB in water, aqueous with cosolvent or surfactant or cyclodextrin), around 1 mg/mL (≈ 1.17 mM); in [5] (OH-P-βCD in water, aqueous with cosolvent or surfactant or cyclodextrin), 0.1 mg/mL (≈ 0.117 mM); in [5] (RAMEB in 2:1 ethanol-water, aqueous with cosolvent or surfactant or cyclodextrin), 4 mg/mL (≈ 4.68 mM); in data set [5] (RAMEB in ethanol-water, aqueous with cosolvent or surfactant or cyclodextrin), 4 mg/mL (≈ 4.68 mM). The solubility at 24 h in [5] (water) came out at 0.0059 mg/mL (≈ 0.00691 mM); in data set [5] (γ-CD in 2:1 ethanol:water, aqueous with cosolvent or surfactant or cyclodextrin), 4 mg/mL (≈ 4.68 mM). The solubility result in [6] (250-350 moles of a methylated cyclodextrin derivative related to 1 mole of Taxol (Hungarian application P93 01373)) was “about 1 mg/ml”; in [6] (with γ-cyclodextrin, molar ratio of 1:20), 0.16 mg/mL; in [7], 0.00055 to 0.00059 mg/mL (≈ 0.000644 to 0.000691 mM); in data set [8] (molar ratio Taxol:CD 1:278, water), 0.8599 mg/mL; in data set [8] (molar ratio Taxol:CD 1:750, water), 0.0425 mg/mL; in [8] (molar ratio Taxol:CD 1:1500, water), 0.0044 mg/mL. Moreover, the solubility in data set [8] (molar ratio Taxol:CD 1.300, water) was 0.2317 mg/mL. Moreover, the “solubility of Taxol” value in [6] (mixed micelle system with bile acid salts and phospholipide) is 0.8 mg/mL. In addition, the “remark (appearance)” value in data set [8] (Taxol 4 mg/ml with γ-CD 1:63, 2:1 ethanol:water, remark wraps over r10-r11: white suspension) was “white”; in data set [8] (Taxol 4 mg/ml, no CD, 2:1 ethanol:water, remark wraps over r6-r9: clear solution. opalescening. then white precipitate), “clear solution”.
Turning to `COC[C@H]1O[C@@H]2O[C@H]3[C@H](O)[C@@H](OC)[C@@H](O[C@H]4[C@H](O)[C@@H](OC)[C@@H](O[C@H]5[C@H](O)[C@@H](OC)[C@@H](O[C@H]6[C@H](O)[C@@H](OC)[C@@H](O[C@H]7[C@H](O)[C@@H](OC)[C@@H](O[C@H]8[C@H](O)[C@@H](OC)[C@@H](O[C@H]1[C@H](O)[C@H]2OC)O[C@@H]8COC)O[C@@H]7COC)O[C@@H]6COC)O[C@@H]5COC)O[C@@H]4COC)O[C@@H]3COC` [DIMEB, heptakis-2,6-0-dimethyl-β-cyclodextrin], the “cell growth by SRB-assay, extinction at 540 nm” value in data set [2] (incubation time 72 hours) is reported as 0.819 ± 0.178; in data set [2] (incubation time 96 hours) it was 1.729 ± 0.185; in [3] (incubation time 72 hours), 0.725 ± 0.200. For the same compound, the “cell growth, % of control” value in data set [2] (incubation time 72 hours) is on record as “(74%)”; in data set [2] (incubation time 96 hours), “(110%)”; in data set [3] (incubation time 72 hours) it was “(96%)”; in data set [3] (incubation time 96 hours) it was “(102%)”. The “toxicity to the cells, in words” value in data set [2] and in data set [3] was “not toxic” throughout.
For the compound `CC(=O)OCC(COC(C)=O)OC(C)=O` [triacetine, 1,2,3-triacetyl-glycerol], the LD50 in data set [9] is 1.2 mg/mL.
